Results as given in ChEMBL document CHEMBL4513141, “CO-ADD screening of NIH (USA) - Clinical Collection” (2021).
Values after ≈ are worked out from the molar mass of the structure shown. Where a name gives a salt, the structure may show the parent alone.

What was measured:
HEK293 = assay: cells; type: functional, Homo sapiens, ATCC CRL1573; details: ASSAY_TEST Inhibition of Cell Viability, detection method Resazurin, Fluorescence (ex560/em590), MEDIA DMEM with 10% FBS, plate type 384well, TC, CORNING #3712, time 18 hr
Staphylococcus aureus [1] = details: ASSAY_TEST Inhibition of Bacterial Growth; detection method Absorption (OD600); MEDIA CAMHB; plate type 384well; NBS; CORNING #3640; time 18 hr
Description: (§1) Antibacterial activity against Staphylococcus aureus MRSA ATCC 43300 (CO-ADD:GP_020); MIC in CAMBH media, using NBS plates, by OD(600)

Escherichia coli [2] = details: ASSAY_TEST Inhibition of Bacterial Growth; detection method Absorption (OD600); MEDIA CAMHB; plate type 384well; NBS; CORNING #3640; time 18 hr
Description: (§2) Antibacterial activity against Escherichia coli ATCC 25922 (CO-ADD:GN_001); MIC in CAMBH media using NBS plates, by OD(600)

Klebsiella pneumoniae [3] = details: ASSAY_TEST Inhibition of Bacterial Growth; detection method Absorption (OD600); MEDIA CAMHB; plate type 384well; NBS; CORNING #3640; time 18 hr
Description: (§3) Antibacterial activity against Klebsiella pneumoniae MDR ATCC 70063 (CO-ADD:GN_003); MIC in CAMBH media using NBS plates, by OD(600)

Pseudomonas aeruginosa [4] = details: ASSAY_TEST Inhibition of Bacterial Growth; detection method Absorption (OD600); MEDIA CAMHB; plate type 384well; NBS; CORNING #3640; time 18 hr
Description: (§4) Antibacterial activity against Pseudomonas aeruginosa ATCC 27853 (CO-ADD:GN_042); MIC in CAMBH media using NBS plates, by OD(600)

Acinetobacter baumannii [5] = details: ASSAY_TEST Inhibition of Bacterial Growth; detection method Absorption (OD600); MEDIA CAMHB; plate type 384well; NBS; CORNING #3640; time 18 hr
Description: (§5) Antibacterial activity against Acinetobacter baumannii ATCC 19606 (CO-ADD:GN_034); MIC in CAMBH media using NBS plates, by OD600

Candida albicans [6] = details: ASSAY_TEST Inhibition of Fungal Growth; detection method Absorption (OD530); plate type 384well; NBS; CORNING #3640
Description: (§6) Antifungal activity against Candida albicans ATCC 90028 (CO-ADD:FG_001); MIC in YNB media using NBS plates, by OD630

Escherichia coli [7] = assay: microbe, parasite or virus in culture; details: ATCC 25922, 18 h, ASSAY_TEST Inhibition of Bacterial Growth, detection method Absorption (OD600), MEDIA CAMHB, plate type 384well, NBS, CORNING #3640
Description: as §2

Klebsiella pneumoniae [8] = assay: microbe, parasite or virus in culture; details: ATCC 700603, 18 h, ASSAY_TEST Inhibition of Bacterial Growth, detection method Absorption (OD600), MEDIA CAMHB, plate type 384well, NBS, CORNING #3640
Description: as §3

Candida albicans [9] = assay: microbe, parasite or virus in culture; details: ATCC 90028, ASSAY_TEST Inhibition of Fungal Growth, detection method Absorption (OD530), plate type 384well, NBS, CORNING #3640
Description: as §6

Staphylococcus aureus [10] = assay: microbe, parasite or virus in culture; details: ATCC 43300, 18 h, ASSAY_TEST Inhibition of Bacterial Growth, detection method Absorption (OD600), MEDIA CAMHB, plate type 384well, NBS, CORNING #3640
Description: as §1

Pseudomonas aeruginosa [11] = assay: microbe, parasite or virus in culture; details: ATCC 27853, 18 h, ASSAY_TEST Inhibition of Bacterial Growth, detection method Absorption (OD600), MEDIA CAMHB, plate type 384well, NBS, CORNING #3640
Description: as §4

Acinetobacter baumannii [12] = assay: microbe, parasite or virus in culture; details: ATCC 19606, 18 h, ASSAY_TEST Inhibition of Bacterial Growth, detection method Absorption (OD600), MEDIA CAMHB, plate type 384well, NBS, CORNING #3640
Description: as §5

[13] = Homo sapiens, ATCC CRL1573, HEK293

Description for Cryptococcus neoformans: Antifungal activity against Cryptococcus neoformans H99 ATCC 208821 (CO-ADD:FG_002); MIC in YNB media using NBS plates, by Resazurin OD(600-570)

SMILES | CC50 (HEK293) | MIC (Staphylococcus aureus [1]) | MIC (Escherichia coli [2]) | MIC (Klebsiella pneumoniae [3]) | MIC (Pseudomonas aeruginosa [4]) | MIC (Acinetobacter baumannii [5]) | MIC (Candida albicans [6]) | MIC (Cryptococcus neoformans) | CC50 (HEK293; [13]) | MIC (Escherichia coli [7]) | MIC (Klebsiella pneumoniae [8]) | MIC (Candida albicans [9]) | MIC (Staphylococcus aureus [10]) | MIC (Pseudomonas aeruginosa [11]) | MIC (Acinetobacter baumannii [12])
COc1cccc2c1C(=O)c1c(O)c3c(c(O)c1C2=O)C[C@@](O)(C(C)=O)C[C@@H]3OC1CC(N)C(O)C(C)O1.Cl (stereo not given in full) | 0.148 µM | 5 µM | >10 µM | >10 µM | >10 µM | >10 µM | >10 µM | > 10 µM | – | – | – | – | – | – | –
C[C@H]1COc2c(N3CCN(C)CC3)c(F)cc3c(=O)c(C(=O)O)cn1c23.C[C@H]1COc2c(N3CCN(C)CC3)c(F)cc3c(=O)c(C(=O)O)cn1c23.O [LEVOFLOXACIN] | – | 0.625 µM | – | – | 0.625 µM | 2.5 µM | – | > 10 µM | > 10 µM | ≤ 0.0781 µM | 2.5 µM | > 10 µM | – | – | –
CO[C@H]1/C=C/O[C@@]2(C)Oc3c(C)c(O)c4c(c3C2=O)C2=NC3(CCN(CC(C)C)CC3)NC2=C(NC(=O)/C(C)=C\C=C\[C@H](C)[C@H](O)[C@@H](C)[C@@H](O)[C@@H](C)[C@H](OC(C)=O)[C@@H]1C)C4=O [RIFABUTIN] | – | – | – | – | – | – | – | > 10 µM | > 10 µM | 5 µM (≈ 4.24 µg/mL) | > 10 µM | > 10 µM | ≤ 0.0781 µM | 0.156 µM (≈ 0.132 µg/mL) | 10 µM (≈ 8.47 µg/mL)
Cc1noc(NS(=O)(=O)c2ccc(N)cc2)c1C [SULFISOXAZOLE] | – | – | – | – | – | – | – | > 10 µM | > 10 µM | > 10 µM | > 10 µM | > 10 µM | > 10 µM | > 10 µM | > 10 µM
CN(C)[C@@H]1C(O)=C(C(N)=O)C(=O)[C@@]2(O)C(O)=C3C(=O)c4c(O)cccc4[C@@](C)(O)[C@H]3C[C@@H]12 [TETRACYCLINE] | – | – | – | – | – | – | – | > 10 µM | > 10 µM | > 10 µM | > 10 µM | > 10 µM | > 10 µM | > 10 µM | > 10 µM
NC1CCN(c2nc3c(cc2F)c(=O)c(C(=O)O)cn3-c2ccc(F)cc2F)C1 (stereo not given) [TOSUFLOXACIN TOSYLATE] | – | – | – | – | – | – | – | > 10 µM | > 10 µM | ≤ 0.0781 µM | 1.25 µM | > 10 µM | ≤ 0.0781 µM | 0.312 µM | 0.625 µM
Oc1cc(Cl)ccc1Oc1ccc(Cl)cc1Cl [TRICLOSAN] | – | – | – | – | – | – | – | > 10 µM | > 10 µM | > 10 µM | > 10 µM | > 10 µM | 2.5 µM (≈ 0.724 µg/mL) | > 10 µM | > 10 µM
COc1cc(Cc2cnc(N)nc2N)cc(OC)c1OC [TRIMETHOPRIM] | – | – | – | – | – | – | – | > 10 µM | > 10 µM | 1.25 µM (≈ 0.363 µg/mL) | 10 µM (≈ 2.9 µg/mL) | > 10 µM | 5 µM (≈ 1.45 µg/mL) | > 10 µM | > 10 µM
C[C@@H](c1ncncc1F)[C@](O)(Cn1cncn1)c1ccc(F)cc1F [VORICONAZOLE] | – | – | – | – | – | – | – | 0.625 µM (≈ 0.218 µg/mL) | > 10 µM | > 10 µM | > 10 µM | ≤ 0.0781 µM | > 10 µM | > 10 µM | > 10 µM
Cc1cn([C@H]2C[C@H](N=[N+]=[N-])[C@@H](CO)O2)c(=O)[nH]c1=O [ZIDOVUDINE] | – | – | – | – | – | – | – | > 10 µM | > 10 µM | 5 µM (≈ 1.34 µg/mL) | 5 µM (≈ 1.34 µg/mL) | > 10 µM | > 10 µM | > 10 µM | > 10 µM
